Assay results: patent publication US8632914B2, “Triazolium and imidazolium salts and uses thereof” (University Health Network, priority 2008, dated 2014)
Where two headings read alike, the source gives them in different places.

Assays:
P. falciparum = experiment: Anti-Plasmodium activity: viability of P. falciparum cultures (pLDH enzyme assay); type: cell-based; settings: read-out: IC50 (μM) P. falciparum
Protocol: P. falciparum cultures were grown in O+ blood obtained by venipuncture of volunteers. Cultures of the laboratory line ItG were maintained by the method of Trager and Jensen (Trager, W.; Jensen, J. Science 1976, 193, 673) using RPM, 1640 supplemented with 10% human serum (a kind gift obtained under ethical consent from the Chemo Day Care department of the Princess Margaret Hospital, Toronto, Canada) and 50 μM hypoxanthine (RPMI-A). The effects of the test compounds on the viability of P. falciparum cultures were determined using a Lactate Dehydrogenase (LDH) enzyme assay specific to the enzyme found in Plasmodium falciparum (pLDH) (Prudhomme, J. G.; Sherman, I. W. J Immunol Methods 1999, 229(1-2), 169; Makler, M. T.; Ries, J. M.; Williams, J. A.; Bancroft, J. E.; Piper, R. C.; Gibbins, B. L.; Hinrichs, D. J. Am J Trop Med Hyg 1993, 48(6), 739). Briefly, compounds to be tested were dissolved in DMSO afford a solution having a concentration of 10 mg/mL. Two-fold serial dilutions were then produced in 50 μL of RPMI-A in a 96 well plate and then 50 μL of parasite culture (2% hematocrit, 2% parasitemia) were added to each well and the plates were then incubated at 37° C. in 95% N2, 3% CO2, and 2% O2 for 72 hr. The contents of the wells were then re-suspended using a multi-channel pipettor and a 15 μL sample was removed from each well and was added to 100 μL of pLDH enzyme assay mixture (Prudhomme, J. G.; Sherman, I. W. J Immunol Methods 1999, 229(1-2), 169). After 1 hr the absorbance of the wells at 650 nm was determined using a ThermoMax microplate reader (Molecular Devices, Sunnyvale, Calif.). The IC50 values of individual compounds were determined using a non-linear regression analysis of the data^19 using the computer program SigmaPlot (Jandel Scientific) and are reported in Table 1. The IC50 values represent the mean±standard error calculated from four independent determinations. To verify if the poor viability of the cultures was related to inhibited merozoite invasion, samples were taken from treated wells and the presence of extracellular merozoites was confirmed by microscopy.

CHO cells = experiment: Viability of CHO cells (MTT); type: cell-based; settings: Cricetulus griseus, read-out: IC50 (μM) CHO cells
Protocol: CHO cells (ATCC, Manassas, Va.) were grown in RPMI-1640 supplemented with 10% fetal calf serum (Sigma, St. Louis, Mo.), 25 mM HEPES and gentimicin (RPMI-10). Cells were seeded in 96 well plates and grown to 50% confluency in 100 μL of RPMI-10 per well prior to the addition of either DMSO alone, or a 10 mg/mL solution of a test compound of the disclosure in DMSO. Compound gradients were prepared by adding 90 μL of RPMI-10 mixed with 10 μL of compound solution to the first well in the series, mixing, transferring 100 μL to the next well, and repeating until the next-to-last well was reached. After 48 hrs, the viability of the cells was determined by discarding the media in the wells and adding 100 μL of 10 mg/mL of 3-[4,5-dimethylthiazol-2-yl]-2,5-diphenyltetrazolium bromide (MTT, Sigma, St. Louis, Mo.) in RPMI-10, incubating the plates for a further hour, and then removing the media and adding 100 μL of DMSO and reading the absorbance at 650 nm (Campling, B. G.; Pym, J.; Galbraith, P. R.; Cole, S. P. Leuk Res 1988, 12(10), 823). The IC50 values of individual compounds were determined using a non-linear regression analysis of the dose-response curve using the computer program SigmaPlot (Jandel Scientific) and are reported in Table 1.

[1] = strain line ItG, 72 hr incubation, pLDH assay, mean of four determinations ± standard error
[2] = CHO cells, 48 hrs, MTT, mean of four determinations ± standard error

## Cl.Cl.c1cn(CCCCCCCCCCCCCCCn2ccnc2)cn1
other
  melting point: 98 to 99 °C

## O=[N+]([O-])c1ccc(Cn2cc[n+](Cc3ccc([N+](=O)[O-])cc3)c2)cc1 [QT85, 1,3-Bis-(4-nitrobenzyl)imidazolium bromide]
P. falciparum; [1]
  IC50: 9 ± 2 µM
CHO cells; [2]
  IC50: 227 ± 7 µM

## Cn1c[n+](C)c(-c2ccccc2)c1-c1ccccc1 [QT104, 1,3-Dimethyl-4,5-diphenyl-1H-imidazolium iodide]
P. falciparum; [1]
  IC50: 3.1 ± 0.4 µM
CHO cells; [2]
  IC50: 385 ± 42 µM

## COc1ccc(Cn2cc[n+](Cc3ccc(OC)cc3)c2)cc1 [QT79, 1,3-Bis-(4-methoxybenzyl)imidazolium chloride]
P. falciparum; 72 h
  IC50: 5 ± 1 µM
CHO cells; CHO, 48 h
  IC50: 30.6 ± 0.7 µM

## C[n+]1ccn(CCCCCCCCCCCCCCCn2cc[n+](C)c2)c1 [QT101, 1,15-Bis-(3-methylimidazolium-1-yl)pentadecane diiodide]
P. falciparum; [1]
  IC50: 0.002 ± 0.001 µM
CHO cells; [2]
  IC50: 1.2 ± 0.2 µM

## Cl.Cl.c1cn(CCCCCCCCCCCCCCn2ccnc2)cn1
other
  melting point: 142 to 143 °C

## O=C(Cn1cc[n+](CC(=O)c2ccc(Cl)cc2)c1)c1ccc(Cl)cc1 [QT91, 1,3-Bis-[2-oxo-2-(4-chlorophenyl)ethyl]imidazolium bromide]
P. falciparum; [1]
  IC50: 2.6 ± 0.1 µM
CHO cells; [2]
  IC50: 53 ± 2 µM

## Fc1ccc(Cn2cc[n+](Cc3ccc(F)cc3)c2)cc1 [QT92, 1,3-Bis-(4-fluorobenzyl)imidazolium bromide]
P. falciparum; [1]
  IC50: 17 ± 3 µM
CHO cells; [2]
  IC50: 56 ± 4 µM

## Clc1ccc(Cn2cc[n+](Cc3ccc(Cl)cc3)c2)cc1 [QT80, 1,3-Bis-(4-chlorobenzyl)imidazolium chloride]
P. falciparum; 72 h
  IC50: 9 ± 2 µM
CHO cells; CHO, 48 h
  IC50: 105 ± 1 µM

## Brc1ccc(Cn2cc[n+](Cc3ccc4ccccc4c3)c2)cc1 [QT95, 1-(4-Bromobenzyl)-3-(naphthalen-2-ylmethyl)imidazolium bromide]
P. falciparum; [1]
  IC50: 0.73 ± 0.03 µM
CHO cells; [2]
  IC50: 27 ± 5 µM

## Brc1ccccc1Cn1cc[n+](Cc2ccccc2Br)c1 [QT82, 1,3-Bis-(2-bromobenzyl)imidazolium bromide]
P. falciparum; [1]
  IC50: 1.4 ± 0.6 µM
CHO cells; [2]
  IC50: 125 ± 10 µM

## c1ccc2cc(Cn3cc[n+](Cc4ccc5ccccc5c4)c3)ccc2c1 [QT81, 1,3-Bis-(naphthalen-2-yl-methyl)imidazolium bromide]
P. falciparum; [1]
  IC50: 0.9 ± 0.4 µM
CHO cells; [2]
  IC50: 27 ± 1 µM

## c1ccc(Cn2c[n+](Cc3ccccc3)c(-c3ccccc3)c2-c2ccccc2)cc1 [QT105, 1,3-dibenzyl-4,5-diphenyl-1H-imidazolium bromide]
P. falciparum; [1]
  IC50: 1.4 ± 0.1 µM
CHO cells; [2]
  IC50: 21 ± 2 µM

## C[n+]1ccn(CCCCCCCCCCCCCCn2cc[n+](C)c2)c1 [QT107, 1,14-Bis-(3-methylimidazolium-1-yl)tetradecane diiodide]
P. falciparum; [1]
  IC50: 0.0032 ± 0.0002 µM
CHO cells; [2]
  IC50: 11 ± 2 µM

## C[n+]1ccn(CCCCCCn2cc[n+](C)c2)c1 [QT87, 1,6-Bis-(3-methylimidazolium-1-yl)hexane diiodide]
P. falciparum; [1]
  IC50: 2.6 ± 0.8 µM
CHO cells; [2]
  IC50: 146 ± 14 µM
other
  melting point: 156 to 157 °C

## C[n+]1ccn(CCCCn2cc[n+](C)c2)c1 [QT86, 1,4-Bis-(3-methylimidazolium-1-yl)butane diiodide]
P. falciparum; [1]
  IC50: 67 ± 22 µM
CHO cells; [2]
  IC50: 122 ± 3 µM

## c1cn(CCCCCCCCCCCCCCCCCCCCn2ccnc2)cn1 [QT-115, 1,20-Bis-(1H-imidazol-1-yl)eicosane]
other
  melting point: 58 to 59 °C

## C[n+]1ccn(Cc2ccc(-c3ccc(Cn4cc[n+](C)c4)cc3)cc2)c1 [QT113, 4,4′-Bis-(3-methylimidazolium-1-yl-methyl)biphenyl diiodide]
P. falciparum; [1]
  IC50: 0.12 ± 0.04 µM
CHO cells; [2]
  IC50: 125 ± 13 µM

## Cl.Cl.c1cn(CCCCCCn2ccnc2)cn1
other
  melting point: 220 to 221 °C

## C[n+]1ccn(CCCCCCCCCCCn2cc[n+](C)c2)c1 [QT118, 1,11-Bis-(3-methylimidazolium-1-yl)undecane diiodide]
P. falciparum; [1]
  IC50: 0.0061 ± 0.0006 µM
CHO cells; [2]
  IC50: 42 ± 3 µM

## C[n+]1ccn(CCCCCCCCCCCCn2cc[n+](C)c2)c1 [QT89, 1,12-Bis-(3-methylimidazolium-1-yl)dodecane diiodide]
P. falciparum; [1]
  IC50: 0.009 ± 0.001 µM
CHO cells; [2]
  IC50: 26 ± 5 µM

## Clc1ccccc1Cn1cc[n+](Cc2ccccc2Cl)c1 [QT90, 1,3-Bis-(2-chlorobenzyl)imidazolium bromide]
P. falciparum; [1]
  IC50: 2 ± 0.2 µM
CHO cells; [2]
  IC50: 110 ± 23 µM

## O=[N+]([O-])c1ccc(C[n+]2ccn(-c3ccc(-c4ccc(-n5cc[n+](Cc6ccc([N+](=O)[O-])cc6)c5)cc4)cc3)c2)cc1 [QT103, 4,4′-Bis-[3-(4-nitrobenzyl)-1H-imidazolium-1-yl]biphenyl dibromide]
P. falciparum; [1]
  IC50: 0.026 ± 0.003 µM
CHO cells; [2]
  IC50: 14 ± 2 µM

## Cl.Cl.c1cn(CCCCCCCCCCn2ccnc2)cn1
other
  melting point: 143 to 144 °C

## C[n+]1ccn(CCCOc2ccc(OCCCn3cc[n+](C)c3)cc2)c1 [QT123, 1,4-Bis[3-(3-methylimidazolium-1-yl)propoxy]benzene diiodide]
P. falciparum; [1]
  IC50: 0.045 ± 0.004 µM
CHO cells; [2]
  IC50: 113 ± 12 µM

## C[n+]1ccn(CCCCCCCCCCn2cc[n+](C)c2)c1 [QT88, 1,10-Bis-(3-methylimidazolium-1-yl)decane diiodide]
P. falciparum; [1]
  IC50: 0.082 ± 0.009 µM
CHO cells; [2]
  IC50: 57 ± 5 µM

## C[n+]1cn(-c2ccc(-c3ccc(-n4c[n+](C)c5ccccc54)cc3)cc2)c2ccccc21 [QT110, 4,4′-Bis-(3-methylbenzimidazolium-1-yl)biphenyl diiodide]
P. falciparum; [1]
  IC50: 0.07 ± 0.01 µM
CHO cells; [2]
  IC50: 98 ± 24 µM

## C[n+]1ccn(CCCCCCCCCCCCCCCCCCCCn2cc[n+](C)c2)c1 [QT116, 1,20-Bis-(3-methylimidazolium-1-yl)eicosane diiodide]
P. falciparum; [1]
  IC50: 0.0021 ± 0.0005 µM
CHO cells; [2]
  IC50: 1.4 ± 0.2 µM
other
  melting point: 78 to 80 °C

## Cn1cc[n+](C)c1 [QT70, 1,3-Dimethylimidazolium iodide]
P. falciparum; [1]
  IC50: 543 ± 66 µM
CHO cells; [2]
  IC50: 894 ± 19 µM

## CCCn1cc[n+](C)c1 [QT73, 3-Methyl-1-propylimidazolium bromide]
P. falciparum; [1]
  IC50: 230 ± 83 µM
CHO cells; [2]
  IC50: 998 ± 83 µM

## Ic1ccc(Cn2cc[n+](Cc3ccc(I)cc3)c2)cc1 [QT78, 1,3-Bis-(4-iodobenzyl)imidazolium bromide]
P. falciparum; [1]
  IC50: 0.35 ± 0.06 µM
CHO cells; [2]
  IC50: 33 ± 1 µM

## c1ccc(Cn2cc[n+](Cc3ccccc3)c2)cc1 [QT68, 1,3-Dibenzylimidazolium bromide]
P. falciparum; [1]
  IC50: 16 ± 1 µM
CHO cells; [2]
  IC50: 191 ± 3 µM

## Brc1ccc(C[n+]2ccn(Cc3ccccc3)c2)cc1 [QT75, 1-Benzyl-3-(4-bromobenzyl)imidazolium bromide]
P. falciparum; [1]
  IC50: 2.9 ± 0.9 µM
CHO cells; [2]
  IC50: 484.5 ± 0.9 µM

## C[n+]1ccn(-c2ccc(-n3cc[n+](C)c3)cc2)c1 [QT114, 1,4-Bis-(3-methylimidazolium-1-yl)benzene diiodide]
P. falciparum; [1]
  IC50: 11.2 ± 0.5 µM
CHO cells; [2]
  IC50: 317 ± 64 µM

## O=C(Cn1cc[n+](CC(=O)c2ccc(Cc3ccccc3)cc2)c1)c1ccc(Cc2ccccc2)cc1 [QT97, 1,3-Bis-[2-oxo-2-(4-benzylphenyl)ethyl]imidazolium bromide]
P. falciparum; [1]
  IC50: 0.5 ± 0.1 µM
CHO cells; [2]
  IC50: 4.3 ± 0.3 µM

## C[n+]1ccn(CCCCCCCCn2cc[n+](C)c2)c1 [QT71, 1,8-Bis-(3-methylimidazolium-1-yl)octane diiodide]
P. falciparum; [1]
  IC50: 4.7 ± 0.9 µM
CHO cells; [2]
  IC50: 452 ± 49 µM

## Clc1cccc(Cn2cc[n+](Cc3cccc(Cl)c3)c2)c1 [QT74, 1,3-Bis-(3-chlorobenzyl)imidazolium bromide]
P. falciparum; [1]
  IC50: 3.3 ± 0.4 µM
CHO cells; [2]
  IC50: 334.2 ± 0.4 µM

## Cl.Cl.c1cn(CCCCCCCCn2ccnc2)cn1
other
  melting point: 176 to 177 °C

## Brc1cccc(Cn2cc[n+](Cc3cccc(Br)c3)c2)c1 [QT83, 1,3-Bis-(3-bromobenzyl)imidazolium bromide]
P. falciparum; [1]
  IC50: 1.05 ± 0.06 µM
CHO cells; [2]
  IC50: 132 ± 22 µM
